# Assay results reported in patent publication US20240287089A1, “Preparation and Uses of 7-Azaindenoisoquinolines” (Purdue Research Foundation, priority 0001, published 2024).
# Where two headings read alike, the source gives them in different places.
# Assays:
# [1] = test system: γ-H2AX; assay: Western blot of RD-ES tumor xenograft tissue; assay type: in vivo, human
# Description: (§1) In several cases, the levels of c-Myc were more greatly depressed at the lower dose level. For examples, see the 9-hour data for G104 in Tables 17 and 18 and the 6-hour data in Table 19. […] Overall, there are many unexpected and unexplained aspects of the data in Tables 17-19, which are highly variable and also highly dependent on cell type. In particular, drug-induced increases in c-Myc expression relative to control and the larger changes in c-Myc expression seen at lower vs. higher doses are counterintuitive and unexplained.
# [2] = test system: c-Myc; assay: Western blot of RD-ES tumor xenograft tissue; assay type: in vivo, human
# Description: as §1
# [3] = assay type: in vivo
# [4] = test system: c-Myc; assay: Western blot of MOLT-4 tumor xenograft tissue; assay type: in vivo, human
# [5] = test system: MOLT-4 human leukemia cells; assay: MOLT-4 xenograft in female NOD SCID mice; assay type: in vivo; conditions: 20 mg/kg IV, 24 days after tumor inoculation
# Description: Xenograft Studies. […] JQ1 was employed as a positive control.
# [6] = Metabolic stability in liver microsomes; conditions: human liver microsomes
# [7] = test system: MYC mRNA in MCF-7 breast cancer cells; assay: qRT-PCR of MYC mRNA; assay type: cell-based; conditions: MCF-7, 1.0 μM, 6 h
# Description: Quantitative Reverse Transcriptase PCR (qRT-PCR). MCF-7 cells were grown and treated in 12-well tissue culture plates until collection. Total RNA was extracted using TRIzol reagent (15596018, Life Technologies). Purified RNA was dissolved in DEPC water and quantified. 1 μg purified RNA per sample was converted to cDNA using qScript cDNA SuperMix (84034, Quantabio) according to manufacturer's instruction. Real-time PCR reagents were made for each sample by mixing 1 μL synthesized cDNA, 3 μL PCR-grade water, 5 μL SYBR Green reagent (A25742, Applied Biosystem), and 0.25 μL each primer for Myc and GAPDH. Reactions were set up in triplicate for each target of each sample. Real-time PCR was conducted in 96-well PCR plates with a QuantStudio 6 Flex Real-Time PCR System (Life Technologies). The cycling condition was 95° C. for 5 min, followed by 40 cycles at 95° C. for 15 s, 60° C. for 15 s, and 72° C. for 15 s. The relative Myc expression was calculated using the 2^−ΔΔCt method by normalizing against GAPDH as the endogenous control.
# [8] = male, mouse, microsomes, 1 μM
# [9] = Brain penetration and plasma/brain pharmacokinetics in combination with Temodar or Lynparza; conditions: for Vd: iv, 10 mg/kg, Vss—obs
# Description: A similar analysis was performed with LMP744 and LMP400 in combination with Temodar and Lynparza.
# [10] = 10 mg/kg IV + Lynparza 100 mg/kg PO, 0.25 h
# [11] = 10 mg/kg IV + Lynparza 100 mg/kg PO, 0.5 h
# [12] = 10 mg/kg IV + Lynparza 100 mg/kg PO, 1 h
# [13] = 10 mg/kg IV + Lynparza 100 mg/kg PO, 2 h
# [14] = 10 mg/kg IV + Lynparza 100 mg/kg PO, 4 h
# [15] = 10 mg/kg IV + Lynparza 100 mg/kg PO, 8 h
# [16] = 10 mg/kg IV + Lynparza 100 mg/kg PO, 24 h
# [17] = LMP400 10 mg/kg IV + Temador 125 mg/kg PO, 0.25 h
# [18] = LMP400 10 mg/kg IV + Temador 125 mg/kg PO, 0.5 h
# [19] = LMP400 10 mg/kg IV + Temador 125 mg/kg PO, 2 h
# [20] = LMP400 10 mg/kg IV + Temador 125 mg/kg PO, 4 h
# [21] = LMP400 10 mg/kg IV + Temador 125 mg/kg PO, 8 h
# [22] = LMP400 10 mg/kg IV + Temador 125 mg/kg PO, 24 h
# [23] = brain, 10 mg/kg IV + Lynparza 100 mg/kg PO
# [24] = brain, LMP400 10 mg/kg IV + Temador 125 mg/kg PO
# [25] = plasma, 10 mg/kg IV + Lynparza 100 mg/kg PO
# [26] = plasma, LMP400 10 mg/kg IV + Temador 125 mg/kg PO
smiles,measurement,setting,value
"CCNCCCn1c2c(c3cc(OC)c(OC)cc3c1=O)C(=O)c1cc3c(nc1-2)OCO3 [G104, 6-(3-(Ethylamino)propyl)-2,3-dimethoxy-5H-[1,3]dioxolo[4″,5″:5′,6′]pyrido [3′,2′:4,5]cyclopenta[1,2-c]isoquinoline-5,12(6H)-dione]","γ-H2AX/GAPDH, % Relative to Vehicle","[1]; IV 15 mg/kg, 3 h",155.18 ± 11.44%
same,"γ-H2AX/GAPDH, % Relative to Vehicle","[1]; IV 15 mg/kg, 6 h",101.89 ± 7.35%
same,"γ-H2AX/GAPDH, % Relative to Vehicle","[1]; IV 30 mg/kg, 3 h",85.61 ± 23.26%
same,"γ-H2AX/GAPDH, % Relative to Vehicle","[1]; IV 30 mg/kg, 6 h",99.26 ± 10.19%
same,"c-Myc/GAPDH, % Relative to Vehicle","[2]; IV 15 mg/kg, 3 h",128.94 ± 6.14%
same,"c-Myc/GAPDH, % Relative to Vehicle","[2]; IV 15 mg/kg, 6 h",53.57 ± 10.75%
same,"c-Myc/GAPDH, % Relative to Vehicle","[2]; IV 30 mg/kg, 3 h",188.78 ± 28.24%
same,"c-Myc/GAPDH, % Relative to Vehicle","[2]; IV 30 mg/kg, 6 h",91.67 ± 23.70%
same,Mean Tumor/Plasma Ratio,"[3]; MOLT-4, 3 h, IV 15 mg/kg",51.3 ± 6.7
same,Mean Tumor/Plasma Ratio,"[3]; MOLT-4, 3 h, IV 30 mg/kg",69.5 ± 8.8
same,Mean Tumor/Plasma Ratio,"[3]; MOLT-4, 9 h, IV 15 mg/kg",125 ± 29
same,Mean Tumor/Plasma Ratio,"[3]; MOLT-4, 9 h, IV 30 mg/kg",106 ± 21
same,"c-Myc/GAPDH, % Relative to Vehicle","[4]; MOLT-4, IV 15 mg/kg, 3 h",119.75 ± 13.40%
same,"c-Myc/GAPDH, % Relative to Vehicle","[4]; MOLT-4, IV 15 mg/kg, 9 h",88.54 ± 7.63%
same,"c-Myc/GAPDH, % Relative to Vehicle","[4]; MOLT-4, IV 30 mg/kg, 3 h",114.32 ± 4.41%
same,"c-Myc/GAPDH, % Relative to Vehicle","[4]; MOLT-4, IV 30 mg/kg, 9 h",100.33 ± 2.35%
"COc1cc2c3c(n(CCCNCCO)c(=O)c2cc1OC)-c1nc2c(cc1C3=O)OCO2 [G105, 6-(3-((2-Hydroxyethyl)amino)propyl)-2,3-dimethoxy-5H-[1,3]dioxolo[4″,5″:5′,6′]pyrido[3′,2′:4,5]cyclopenta[1,2-c]isoquinoline-5,12(6H)-dione]",average animal weight relative to initial body weight,[5],80.9±1.1%
same,Scaled-up CLint,[6],7.67 mL/min/kg
same,in vitro CLint,[6],6.12 μL/min/mg protein
same,T1/2,[6]; 1 μM,3.7753 h
same,"γ-H2AX/GAPDH, % Relative to Vehicle","[1]; IV 10 mg/kg, 3 h",145.80 ± 32.79%
same,"γ-H2AX/GAPDH, % Relative to Vehicle","[1]; IV 10 mg/kg, 6 h",111.73 ± 14.44%
same,"γ-H2AX/GAPDH, % Relative to Vehicle","[1]; IV 20 mg/kg, 3 h",134.62 ± 18.03%
same,"γ-H2AX/GAPDH, % Relative to Vehicle","[1]; IV 20 mg/kg, 6 h",109.81 ± 27.72%
same,"c-Myc/GAPDH, % Relative to Vehicle","[2]; IV 10 mg/kg, 3 h",128.18 ± 13.67%
same,"c-Myc/GAPDH, % Relative to Vehicle","[2]; IV 10 mg/kg, 6 h",69.45 ± 15.02%
same,"c-Myc/GAPDH, % Relative to Vehicle","[2]; IV 20 mg/kg, 3 h",154.98 ± 17.80%
same,"c-Myc/GAPDH, % Relative to Vehicle","[2]; IV 20 mg/kg, 6 h",71.97 ± 14.55%
same,Mean Tumor/Plasma Ratio,"[3]; MOLT-4, 3 h, IV 10 mg/kg",50 ± 13.4
same,Mean Tumor/Plasma Ratio,"[3]; MOLT-4, 9 h, IV 10 mg/kg",357 ± 180
same,Mean Tumor/Plasma Ratio,"[3]; MOLT-4, 9 h, IV 20 mg/kg",326 ± 102
same,MYC mRNA level,[7],significantly lowered MYC mRNA levels
same,"c-Myc/GAPDH, % Relative to Vehicle","[4]; MOLT-4, IV 10 mg/kg, 3 h",110.56 ± 4.90%
same,"c-Myc/GAPDH, % Relative to Vehicle","[4]; MOLT-4, IV 10 mg/kg, 9 h",84.53 ± 6.26%
same,"c-Myc/GAPDH, % Relative to Vehicle","[4]; MOLT-4, IV 20 mg/kg, 3 h",96.74 ± 9.71%
same,"c-Myc/GAPDH, % Relative to Vehicle","[4]; MOLT-4, IV 20 mg/kg, 9 h",83.89 ± 10.06%
same,Scaled-up CLint,[8],14.10 mL/min/kg
same,T1/2,[8],7.1658 h
same,in vitro CLint,[8],3.22 μL/min/mg protein
"COc1cc2c3c(n(CCCN4CCOCC4)c(=O)c2cc1OC)-c1cc2c(cc1C3=O)OCO2 [LMP400, indotecan]",Brain Conc,[9]; [10],14924 ± 107 nM
same,Brain/Plasma Conc Ratio,[9]; [10],4.58
same,Plasma Conc,[9]; [10],3258 ± 295 nM
same,Brain Conc,[9]; [11],12083 ± 1787 nM
same,Brain/Plasma Conc Ratio,[9]; [11],5.42
same,Plasma Conc,[9]; [11],2231 ± 419 nM
same,Brain Conc,[9]; [12],6670 ± 431 nM
same,Plasma Conc,[9]; [12],1787 ± 169 nM
same,Brain Conc,[9]; [13],3766 ± 408 nM
same,Brain/Plasma Conc Ratio,[9]; [13],2.73
same,Plasma Conc,[9]; [13],1381 ± 84 nM
same,Brain Conc,[9]; [14],2666 ± 265 nM
same,Brain/Plasma Conc Ratio,[9]; [14],2.83
same,Plasma Conc,[9]; [14],941 ± 190 nM
same,Brain Conc,[9]; [15],1162 ± 104 nM
same,Plasma Conc,[9]; [15],491 ± 53 nM
same,Brain Conc,[9]; [16],235 ± 76 nM
same,Plasma Conc,[9]; [16],111 ± 39 nM
same,Brain/Plasma Conc Ratio,[9]; [17],5.99
same,Plasma Conc,[9]; [17],2311 ± 274 nM
same,Brain Conc,[9]; [18],10074 ± 1157 nM
same,Brain/Plasma Conc Ratio,[9]; [18],5.20
same,Plasma Conc,"[9]; LMP400 10 mg/kg IV + Temador 125 mg/kg PO, 1 h",1944 ± 211 nM
same,Brain/Plasma Conc Ratio,[9]; [19],3.16
same,Plasma Conc,[9]; [19],1041 ± 57 nM
same,Brain Conc,[9]; [20],1722 ± 226 nM
same,Brain/Plasma Conc Ratio,[9]; [20],2.79
same,Plasma Conc,[9]; [20],617 ± 24 nM
same,Brain Conc,[9]; [21],919 ± 165 nM
same,Brain/Plasma Conc Ratio,[9]; [21],1.91
same,Plasma Conc,[9]; [21],481 ± 104 nM
same,Brain Conc,[9]; [22],177 ± 70 nM
same,Brain/Plasma Conc Ratio,[9]; [22],0.96
same,AUCInf,[9]; [23],20928 ng·h/g
same,AUClast,[9]; [23],19983 ng·h/g
same,AUC—% Extrap—obs,[9]; [23],4.51%
same,Cmax,[9]; [23],12173 ng/g
same,T1/2,[9]; [23],6.01 h
same,AUCInf,[9]; [24],16590 ng·h/g
same,AUClast,[9]; [24],15811 ng·h/g
same,AUC—% Extrap—obs,[9]; [24],4.70%
same,Cmax,[9]; [24],9080 ng/g
same,MRTInf—obs,[9]; [24],5.67 h
same,T1/2,[9]; [24],6.35 h
same,Tmax,[9]; [24],4.98 min
same,concentration at 0.25 h,"[9]; mouse, brain, intravenous, Brain Conc, LMP400 10 mg/kg IV + Temador 125 mg/kg PO, 0.25 h",13800 ± 638 nM
same,concentration at 1 h,"[9]; mouse, brain, intravenous, Brain Conc, LMP400 10 mg/kg IV + Temador 125 mg/kg PO, 1 h",5360 ± 276 nM
same,concentration at 2 h,"[9]; mouse, brain, intravenous, Brain Conc, LMP400 10 mg/kg IV + Temador 125 mg/kg PO, 2 h",5290 ± 321 nM
same,concentration at 0.5 h,"[9]; mouse, plasma, intravenous, Plasma Conc, LMP400 10 mg/kg IV + Temador 125 mg/kg PO, 0.5 h",1940 ± 274 nM
same,Vd,"[9]; mouse, plasma, plasma, 10 mg/kg IV + Lynparza 100 mg/kg PO",10.4 L/kg
same,Vd,"[9]; mouse, plasma, plasma, LMP400 10 mg/kg IV + Temador 125 mg/kg PO",11.9 L/kg
same,AUCInf,[9]; [25],7144 ng·h/mL
same,AUClast,[9]; [25],6642 ng·h/mL
same,AUClast/D,[9]; [25],664 h·ng/mL per mg/kg
same,AUC—% Extrap—obs,[9]; [25],7.02%
same,C0,[9]; [25],2286 ng/mL
same,Cl_obs,[9]; [25],23.3 mL/min/kg
same,T1/2,[9]; [25],6.74 h
same,AUCInf,[9]; [26],6248 ng·h/mL
same,AUClast,[9]; [26],5823 ng·h/mL
same,AUClast/D,[9]; [26],582 h·ng/mL per mg/kg
same,AUC—% Extrap—obs,[9]; [26],6.80%
same,C0,[9]; [26],3042 ng/mL
same,Cl_obs,[9]; [26],26.7 mL/min/kg
same,MRTInf—obs,[9]; [26],7.41 h
same,T1/2,[9]; [26],7.03 h
